Measurements: patent US11986471B2, “Compounds and methods of use” (Tango Therapeutics, Inc., priority 2018, dated 2024)

What was measured:
[1] = target: T1, PRMT5 (Homo sapiens, UniProt O14744); test: PRMT5 IC50 assay in the presence of SAM as cofactor; format: biochemical
T1 construct: purchased Viva (custom protein)
Outline: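 Three cofactor conditions are run: SAM-bound, MTA-bound and cofactor-free enzyme. IC50 is read from each; for the SAM and MTA arms it is divided by 1.5 and 13.5 respectively to give Ki.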

[2] = target: T1, PRMT5; test: PRMT5 IC50 assay with no cofactor; format: biochemical
Outline: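 Results given as IC50 (μM), from which Ki follows by dividing by 1.5 in the SAM condition or by 13.5 in the MTA condition. The ratio of SAM Ki to MTA Ki indicates MTA-cooperative preference.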

[3] = target: T1, PRMT5; test: PRMT5 IC50 assay in the presence of MTA as cofactor; format: biochemical; settings: for IC50: PRMT5, MTA as cofactor
Outline: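 MTA-dependent versus SAM-dependent inhibition of human PRMT5 was assessed by IC50; conversion factors of 13.5 and 1.5 gave the corresponding Ki.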

[4] = test system: HAP1 MTAP-intact; test: SDMA in-cell western assay, HAP1 MTAP-intact cell line; format: cell-based; settings: Homo sapiens
Outline: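 Using an MTAP-isogenic HAP1 cell pair, inhibition of SDMA formation is read by in-cell western and expressed as IC50. MTAP-selectivity is assigned where the ratio between lines reaches 3 fold or greater.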

[5] = test system: HAP1 MTAP-deleted; test: SDMA in-cell western assay, HAP1 MTAP-deleted cell line; format: cell-based; settings: for IC50: Homo sapiens, HAP1 MTAP-deleted cell line; for MTAP Intact/Deleted Ratio: IC50 ratio HAP1 MTAP-intact / HAP1 MTAP-deleted
Outline: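 In-cell western for SDMA marks; MTAP-deleted (null) HAP1 background; values given as IC50.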

[6] = ratio between Ki in the presence of SAM and Ki in the presence of MTA
[7] = ratio between the Ki in the presence of SAM and the Ki in the presence of MTA

T1 sequence (O14744 whole entry): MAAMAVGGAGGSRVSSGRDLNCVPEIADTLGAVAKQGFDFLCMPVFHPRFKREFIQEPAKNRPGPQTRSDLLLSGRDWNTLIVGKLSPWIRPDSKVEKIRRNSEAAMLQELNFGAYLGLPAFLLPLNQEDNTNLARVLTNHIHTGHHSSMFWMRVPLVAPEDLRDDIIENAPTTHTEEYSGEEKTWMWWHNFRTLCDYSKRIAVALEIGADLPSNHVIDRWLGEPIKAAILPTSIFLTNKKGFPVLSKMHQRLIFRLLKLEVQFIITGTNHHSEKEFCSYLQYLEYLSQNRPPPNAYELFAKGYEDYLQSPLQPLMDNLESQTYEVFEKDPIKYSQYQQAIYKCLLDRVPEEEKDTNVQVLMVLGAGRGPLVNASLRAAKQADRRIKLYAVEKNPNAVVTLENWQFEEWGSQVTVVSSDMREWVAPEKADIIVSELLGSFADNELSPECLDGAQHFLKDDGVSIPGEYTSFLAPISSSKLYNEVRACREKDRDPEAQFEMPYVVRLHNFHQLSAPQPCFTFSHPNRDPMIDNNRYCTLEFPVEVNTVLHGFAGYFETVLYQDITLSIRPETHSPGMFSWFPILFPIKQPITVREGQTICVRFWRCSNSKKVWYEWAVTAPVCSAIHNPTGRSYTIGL
T1 sequence (Q9BQA1 whole entry partner): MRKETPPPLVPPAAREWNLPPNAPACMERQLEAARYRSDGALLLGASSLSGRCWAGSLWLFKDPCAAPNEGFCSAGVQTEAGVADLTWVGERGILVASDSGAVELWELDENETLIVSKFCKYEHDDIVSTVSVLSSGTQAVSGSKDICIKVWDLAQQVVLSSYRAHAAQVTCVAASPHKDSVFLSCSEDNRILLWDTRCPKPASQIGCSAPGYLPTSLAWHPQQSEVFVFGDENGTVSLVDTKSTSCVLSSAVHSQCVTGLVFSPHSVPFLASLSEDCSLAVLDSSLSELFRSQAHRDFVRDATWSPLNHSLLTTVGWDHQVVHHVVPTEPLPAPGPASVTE

SMILES	IC50 [1]	IC50 ([2]; read-out: No Co-factor IC50)	IC50 [3]	IC50 [4]	IC50 [5]	IC50 [2]	SAM/MTA Ratio [3, 6]	MTAP Intact/Deleted Ratio [5]	SAM/MTA Ratio [3, 7]
CC(=O)N1CCN(c2nc(NC3COC3)cc(C(=O)NC[C@H](O)CN3CCc4c(ccc(OCc5cnco5)c4Cl)C3)n2)CC1 [Compound 300, (S)-2-(4-acetylpiperazin-1-yl)-N-(3-(5-chloro-6-(oxazol-5-ylmethoxy)-3,4-dihydroisoquinolin-2(1H)-yl)-2-hydroxypropyl)-6-(oxetan-3-ylamino)pyrimidine-4-carboxamide]	50 to 500 nM	500 to 5000 nM	50 to 500 nM	≥ 10000 nM	≥ 10000 nM	–	A (a Ki ratio greater than or equal to 10 fold between the Ki in the presence of SAM and the Ki in the presence of MTA)	C* (an IC50 ratio of less than 3 fold between the IC50 in the HAP1 MTAP-intact cell line and the HAP1 MTAP-deleted cell line)	–
Cc1c(OCc2cnco2)cc(F)c2c1CCN(C[C@@H](O)CNC(=O)c1ccnc(NC3CCC3)c1)C2 [Compound 341, 2-(cyclobutylamino)-N-[(2S)-3-[8-fluoro-5-methyl-6-(oxazol-5-ylmethoxy)-3,4-dihydro-1H-isoquinolin-2-yl]-2-hydroxy-propyl]pyridine-4-carboxamide]	50 to 500 nM	500 to 5000 nM	50 to 500 nM	≥ 10000 nM	1000 to 10000 nM	–	A (a Ki ratio greater than or equal to 10 fold between the Ki in the presence of SAM and the Ki in the presence of MTA)	B* (an IC50 ratio greater than or equal to 3 fold but lower than 10 fold between the IC50 in the HAP1 MTAP-intact cell line and the HAP1 MTAP-deleted cell line)	–
Cc1ncoc1COc1ccc2c(c1)CCN(C[C@@H](O)CNC(=O)c1cc(NC3CCC3)ncc1Cl)C2 [Compound 607, 5-chloro-2-(cyclobutylamino)-N-[(2S)-2-hydroxy-3-[6-[(4-methyloxazol-5-yl)methoxy]-3,4-dihydro-1H-isoquinolin-2-yl]propyl]pyridine-4-carboxamide]	50 to 500 nM	–	50 to 500 nM	< 1000 nM	< 1000 nM	≥ 5000 nM	–	C* (an IC50 ratio of less than 3 fold between the IC50 in the HAP1 MTAP-intact cell line and the HAP1 MTAP-deleted cell line)	A (a Ki ratio greater than or equal to 10 fold between the Ki in the presence of SAM and the Ki in the presence of MTA)
O=C(NC[C@H](O)CN1CCc2c(ccc(OCc3cnco3)c2Cl)C1)c1ccnc(NC2CCC2)c1 [Compound 194, N-[(2S)-3-[5-chloro-6-(oxazol-5-ylmethoxy)-3,4-dihydro-1H-isoquinolin-2-yl]-2-hydroxy-propyl]-2-(cyclobutylamino)pyridine-4-carboxamide]	500 to 5000 nM	≥ 5000 nM	50 to 500 nM	≥ 10000 nM	≥ 10000 nM	–	–	C* (an IC50 ratio of less than 3 fold between the IC50 in the HAP1 MTAP-intact cell line and the HAP1 MTAP-deleted cell line)	–
O=C(NC[C@H](O)CN1CCc2c(ccc(OCc3cnco3)c2Br)C1)c1cc(NC2CCC2)ncn1 [Compound 361, (S)—N-(3-(5-bromo-6-(oxazol-5-ylmethoxy)-3,4-dihydroisoquinolin-2(1H)-yl)-2-hydroxypropyl)-6-(cyclobutylamino)pyrimidine-4-carboxamide]	500 to 5000 nM	≥ 5000 nM	500 to 5000 nM	≥ 10000 nM	≥ 10000 nM	–	A (a Ki ratio greater than or equal to 10 fold between the Ki in the presence of SAM and the Ki in the presence of MTA)	C* (an IC50 ratio of less than 3 fold between the IC50 in the HAP1 MTAP-intact cell line and the HAP1 MTAP-deleted cell line)	–

Second part, led by results:

IC50 [1]	IC50 ([2]; read-out: No Co-factor IC50)	IC50 [3]	IC50 [4]	IC50 [5]	IC50 [2]	SMILES	SAM/MTA Ratio [3, 6]	MTAP Intact/Deleted Ratio [5]	SAM/MTA Ratio [3, 7]
50 to 500 nM	–	< 50 nM	1000 to 10000 nM	< 1000 nM	500 to 5000 nM	Cc1ncoc1COc1ccc2c(c1)CCN(C[C@@H](O)CNC(=O)c1ccc3c(c1)CCN(C(=O)c1ccc(Br)cc1)C3)C2 [Compound 493]	–	B* (an IC50 ratio greater than or equal to 3 fold but lower than 10 fold between the IC50 in the HAP1 MTAP-intact cell line and the HAP1 MTAP-deleted cell line)	A (a Ki ratio greater than or equal to 10 fold between the Ki in the presence of SAM and the Ki in the presence of MTA)
50 to 500 nM	–	50 to 500 nM	≥ 10000 nM	1000 to 10000 nM	500 to 5000 nM	CC(=O)N1CCC(Nc2cc(C(=O)NC[C@H](O)CN3CCc4cc(OCc5ocnc5C)ccc4C3)cc(N3CCN(C(C)=O)CC3)n2)CC1 [Compound 594, 2-(4-acetylpiperazin-1-yl)-6-[(1-acetylpiperidin-4-yl)amino]-N-[(2S)-2-hydroxy-3-{6-[(4-methyl-1,3-oxazol-5-yl)methoxy]-1,2,3,4-tetrahydroisoquinolin-2-yl}propyl]pyridine-4-carboxamide]	–	C* (an IC50 ratio of less than 3 fold between the IC50 in the HAP1 MTAP-intact cell line and the HAP1 MTAP-deleted cell line)	A (a Ki ratio greater than or equal to 10 fold between the Ki in the presence of SAM and the Ki in the presence of MTA)
50 to 500 nM	–	50 to 500 nM	≥ 10000 nM	1000 to 10000 nM	500 to 5000 nM	CC(=O)N1CCC(Nc2cccc(C(=O)NC[C@H](O)CN3CCc4c(ccc(OCc5cnco5)c4C)C3)c2)CC1 [Compound 529, 3-[(1-acetylpiperidin-4-yl)amino]-N-[(2S)-2-hydroxy-3-{5-methyl-6-[(1,3-oxazol-5-yl)methoxy]-1,2,3,4-tetrahydroisoquinolin-2-yl}propyl]benzamide]	–	B* (an IC50 ratio greater than or equal to 3 fold but lower than 10 fold between the IC50 in the HAP1 MTAP-intact cell line and the HAP1 MTAP-deleted cell line)	A (a Ki ratio greater than or equal to 10 fold between the Ki in the presence of SAM and the Ki in the presence of MTA)
50 to 500 nM	–	50 to 500 nM	≥ 10000 nM	< 1000 nM	50 to 500 nM	COCCN(C)c1cc(C(=O)NC[C@H](O)CN2CCc3cc(OCc4ocnc4C)c(F)cc3C2)cc(NC2CCN(C(C)=O)CC2)n1 [Compound 612, 2-[(1-acetyl-4-piperidyl)amino]-N-[(2S)-3-[7-fluoro-6-[(4-methyloxazol-5-yl)methoxy]-3N-dihydro-1H-isoquinolin-2-yl]-2-hydroxy-propyl]-6-[2-methoxyethyl(methyl)amino]pyridine-4-carboxamide]	–	A* (an IC50 ratio greater than or equal to 10 fold between the IC50 in the HAP1 MTAP-intact cell line and the HAP1 MTAP-deleted cell line)	A (a Ki ratio greater than or equal to 10 fold between the Ki in the presence of SAM and the Ki in the presence of MTA)
50 to 500 nM	–	50 to 500 nM	1000 to 10000 nM	< 1000 nM	≥ 5000 nM	Cc1ncoc1COc1ccc2c(c1)CCN(C[C@@H](O)CNC(=O)c1cc(CC(C)C)nc(NC3CCC3)c1)C2 [Compound 439, 2-(cyclobutylamino)-N-[(2S)-2-hydroxy-3-{6-[(4-methyl-1,3-oxazol-5-yl)methoxy]-1,2,3,4-tetrahydroisoquinolin-2-yl}propyl]-6-(2-methylpropyl)pyridine-4-carboxamide]	–	C* (an IC50 ratio of less than 3 fold between the IC50 in the HAP1 MTAP-intact cell line and the HAP1 MTAP-deleted cell line)	A (a Ki ratio greater than or equal to 10 fold between the Ki in the presence of SAM and the Ki in the presence of MTA)
50 to 500 nM	500 to 5000 nM	50 to 500 nM	≥ 10000 nM	≥ 10000 nM	–	CN1CCN(c2cc(C(=O)NC[C@H](O)CN3CCc4c(ccc(OCc5cnco5)c4Cl)C3)cc(NC3CCC3)n2)CC1 [Compound 419, (S)—N-(3-(5-chloro-6-(oxazol-5-ylmethoxy)-3N-dihydroisoquinolin-2(1H)-yl)-2-hydroxypropyl)-2-(cyclobutylamino)-6-(4-methylpiperazin-1-yl)isonicotinamide]	A (a Ki ratio greater than or equal to 10 fold between the Ki in the presence of SAM and the Ki in the presence of MTA)	C* (an IC50 ratio of less than 3 fold between the IC50 in the HAP1 MTAP-intact cell line and the HAP1 MTAP-deleted cell line)	–
50 to 500 nM	500 to 5000 nM	50 to 500 nM	< 1000 nM	< 1000 nM	–	COCCN(C)c1nc(NC2COC2)cc(C(=O)NC[C@H](O)CN2CCc3cc(OCc4ocnc4C)ccc3C2)n1 [Compound 408, N-[(2S)-2-hydroxy-3-{6-[(4-methyl-1,3-oxazol-5-yl)methoxy]-1,2,3,4-tetrahydroisoquinolin-2-yl}propyl]-2-[(2-methoxyethyl)(methyl)amino]-6-[(oxetan-3-yl)amino]pyrimidine-4-carboxamide]	A (a Ki ratio greater than or equal to 10 fold between the Ki in the presence of SAM and the Ki in the presence of MTA)	C* (an IC50 ratio of less than 3 fold between the IC50 in the HAP1 MTAP-intact cell line and the HAP1 MTAP-deleted cell line)	–
